These results are taken from patent US12465630B2, “Small peptide compositions and uses thereof” (University of Pittsburgh—Of the Commonwealth System of …, priority 2018, dated 2025).

Assay [1] relates to co-cultures of cardiomyocytes and cardiac fibroblasts. Kind of assay: Fibrotic extracellular matrix (ECM) secretion, co-cultures. It counts as cell-based, mouse. To be noted: 48 h. The procedure:
(§1) Primary cardiac fibroblasts and cardiomyocytes were isolated from both wild-type and CXCR3−/− neonatal mouse pups. After washing in PBS, hearts were stirred for 5 minutes in 0.5% trypsin at 37° C. to dissociate cells into solution. The suspended cells were then transferred to DMEM containing 20% fetal bovine serum (FBS) on ice to inactivate trypsin activity, and dissociation was repeated twice more with fresh trypsin solution. Cells were then washed and plated into 6-well plates at 1.25×10^6 cells/well, suspended in cardiac cell media (DMEM containing 7.5% dialyzed FBS and 1% antibiotic/antimitotic solution). After three hours, adhered fibroblasts were separated from the unattached cardiomyocytes through resuspension of the cells, and cardiomyocytes were plated separately at a density of 5×10^5 cells/ml.
Cardiac fibrosis is marked by overproduction of ECM proteins following injury. To observe the effect of IP-10p on secretion of these molecules, co-cultures of cardiomyocytes and cardiac fibroblasts were used to account for […] signaling taking place between the two dominant cell types in the heart. Fibroblasts and myocytes were plated at a 2:1 ratio using the same culture conditions and treatment groups described above for fibroblast activation. Following a 48-hour incubation with their respective treatments, cells were fixed, permeabilized and stained. Antibodies for collagen α1 type 1 (1:250, Santa Cruz Biotechnology SC8784, Dallas, TX), fibronectin (1:250, Abcam ab2413), and tenascin C (1:200, Abcam ab6346), followed by their appropriate secondary antibodies (Abcam ab150132, ab150077, and 150153, respectively), were used to determine fibrotic ECM secretion from the co-cultures. Expression of these molecules is expressed at CTCF and was quantified using MetaMorph® (Molecular Devices, Sunnyvale, CA).

Assay [2] relates to cardiac fibroblasts. Kind of assay: Motility (scratch) assay, cardiac fibroblasts. It is filed as cell-based, mouse. The procedure: as §1
(§2) To determine the effect of IP-10p on TGFβ1-induced cell migration, motility assays were performed on cardiac fibroblasts, cardiomyocytes, and co-cultures (2:1 ratio of cardiomyocytes to fibroblasts). Cells were plated at 2.5×10^5 cells/well in a 12-well uncoated plate in depleted media (DMEM containing 0.5% FBS) 24 hours before beginning the experiment. A pipette tip was used to create a scratch in the monolayer and the plate was washed twice with PBS to remove scraped cells. Cells were then treated with TGFβ1 (R&D Systems, Minneapolis, MN) alone (10 ng/mL) to stimulate fibrosis, CXCL10 alone (10 μM), IP-10p alone (10 μM), TGFβ1+CXCL10, TGFβ1+IP-10p, or left untreated. Images were taken immediately after scratching and 24 hours later, and Adobe Photoshop was used to quantify wound motility as distance between wound edges relative to the initial scratch width.

The subject of assay [3] is cardiac fibroblasts. Kind of assay: Fibroblast activation assay (αSMA), cardiac fibroblasts. It counts as cell-based, mouse. As for the experimental part:
as §1
(§3) Fibroblast activation to myofibroblasts is marked by αSMA expression within the cytoskeleton and serves as a marker to induce fibrosis. Cardiac fibroblasts were plated at 2,000 cells/well in an 8-well chamber slide and allowed to adhere overnight. After 24 hours, cells were washed and treated with: TGFβ1 alone (10 ng/ml), CXCL10 alone (10 μM), IP-10p alone (10 μM), TGFβ1+CXCL10, TGFβ1+IP-10p, or left untreated. After 24 hours, cells were fixed in ice cold methanol for 10 minutes and stained for αSMA (1:200, Abcam ab5694, Cambridge, UK) at 4° C. overnight, followed by a goat-anti-rabbit Alexa Fluor 594-conjugated secondary antibody (Abcam ab150080). After counterstaining with DAPI, cells were imaged, and fibroblast activation was measured using corrected total cell fluorescence (CTCF). These measurements were also performed in co-cultures of cardiomyocytes and cardiac fibroblasts (2:1 ratio)

The target of another assay is T1, CXCR3 (Homo sapiens, UniProt P49682).
T1 sequence (P49682 1-415 isoform P49682-2): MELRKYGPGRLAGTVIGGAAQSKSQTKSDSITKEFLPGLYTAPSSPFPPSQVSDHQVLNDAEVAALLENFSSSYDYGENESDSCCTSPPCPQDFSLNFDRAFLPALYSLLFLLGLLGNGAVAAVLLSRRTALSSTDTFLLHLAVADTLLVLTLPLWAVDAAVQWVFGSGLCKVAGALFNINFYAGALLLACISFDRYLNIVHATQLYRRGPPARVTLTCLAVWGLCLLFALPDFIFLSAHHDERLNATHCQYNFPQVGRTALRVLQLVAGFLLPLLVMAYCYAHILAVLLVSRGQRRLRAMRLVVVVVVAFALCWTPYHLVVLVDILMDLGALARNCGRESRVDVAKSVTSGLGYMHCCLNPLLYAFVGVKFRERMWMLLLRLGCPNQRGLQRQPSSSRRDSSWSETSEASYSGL
Conditions: cited from earlier work.

Assay [4] has as its system CXCR3−/− co-cultures of cardiac fibroblasts and cardiomyocytes. Kind of assay: Myofibroblast differentiation and ECM in CXCR3−/− co-cultures. It is filed as cell-based, mouse. Conditions: CXCR3−/− cells, TGFβ1. As for the experimental part: as §1, §3
Cardiac fibrosis is marked by overproduction of ECM proteins following injury. […] Expression of these molecules is expressed at CTCF and was quantified using MetaMorph® (Molecular Devices, Sunnyvale, CA).
In addition to cell motility, myofibroblast differentiation in CXCR3−/− cells in response to IP-10p was assessed. […]

The test system of assay [5] is co-cultures of cardiomyocytes and cardiac fibroblasts. The assay can be described thus: Motility (scratch) assay, co-cultures. It is filed as cell-based, mouse. To be noted: co-culture 2:1 cardiomyocytes to fibroblasts; FIG. 1C; listed as IP-10 Peptide. As for the experimental part:
as §1
To determine the effect of IP-10p on TGFβ1-induced cell migration, motility assays were performed on cardiac fibroblasts, cardiomyocytes, and co-cultures (2:1 ratio of cardiomyocytes to fibroblasts). Cells were plated at 2.5×10^5 cells/well in a 12-well uncoated plate in depleted media (DMEM containing 0.5% FBS) 24 hours before beginning the experiment. […] Images were taken immediately after scratching and 24 hours later, and Adobe Photoshop was used to quantify wound motility as distance between wound edges relative to the initial scratch width.

For the next assay, the system named is cardiomyocytes. The assay can be described thus: Motility (scratch) assay, cardiomyocytes. It counts as cell-based, mouse. Conditions: TGFβ1 10 ng/mL + agent 10 μM, 24 h, FIG. 1A. The procedure:
as §1, §2

Where [6] appears, read: agent alone vs unstimulated cultures.

For the sequence “PESKAIKNLLKAVSKEMSKRSP [IP-10p, 22-amino acid CXCL10 peptide spanning the C-terminal residues (77-98) of IP-10, the alpha-helical region]”, in assay [1] (TGFβ1 10 ng/mL + agent 10 μM), the “collagen expression in the presence of TGFβ1” value is listed as “reduced expression of both these proteins to baseline levels” and the “fibronectin expression in the presence of TGFβ1” value was “reduced expression of both these proteins to baseline levels”. Further, in assay [1] (setting [6]), the “collagen secretion, agent alone” value is “reduced collagen and fibronectin secretion”; the “fibronectin secretion, agent alone” value was “reduced collagen and fibronectin secretion”. Besides, in the assay with cardiac fibroblasts [2] (10 μM alone, 24 h, compared to control), the “motility of cardiac fibroblasts, agent alone” value is “not altered”. For the same sequence, in the assay with cardiac fibroblasts [2] (FIG. 1B), the “migration following TGF-β induction in cardiac fibroblasts” value is on record as “inhibit migration”. Besides, the “reduction of motility of TGFβ1-treated fibroblasts” value in the assay with cardiac fibroblasts [2] (TGFβ1 10 ng/mL + agent 10 μM, 24 h) is “over 40%”. The “reduction of activation of fibroblasts (αSMA) compared to the untreated control” value with cardiac fibroblasts [3] (IP-10p alone 10 μM, 24 h) amounted to 33%. The “αSMA expression in the presence of TGFβ1” value with cardiac fibroblasts [3] (TGFβ1 10 ng/mL + IP-10p 10 μM vs TGFβ1 alone) is on record as “reduced αSMA expression”. Moreover, in the assay with CXCR3 (PCT Publication Nos. WO 2013/032853 and WO 2015/112505), the “activation of the CXCR3B isoform” value is given as “activates the CXCR3B isoform”. In the assay with CXCR3 (compared with whole CXCL10), the “competition for binding and activation of CXCR3” value was “competes for binding and activation of CXCR3 in an equimolar manner to whole CXCL10”. Besides, in assay [4], the “expression of αSMA in CXCR3−/− co-cultures” value is recorded as “inhibiting expression”, the “upregulation of collagen I in CXCR3−/− co-cultures” value is reported as “inhibited upregulation” and the “upregulation of fibronectin in CXCR3−/− co-cultures” value is “inhibited upregulation”. Also, the “cellular migration in TGF-β induced co-cultures” value in assay [5] was “inhibits cellular migration”. Moreover, the “cardiomyocyte motility in the presence of TGFβ1” value in the assay with cardiomyocytes is listed as “completely inhibited”. For the same sequence, the “cardiomyocyte motility in the presence of TGFβ1” value in the assay with cardiomyocytes (listed as IP-10 Peptide) is reported as “inhibit migration”.
